ChEMBL document CHEMBL1201862, “PubChem BioAssay data set” (2004)
Active and inactive are the calls of the source.

Columns and labels:
Cytochrome P450 2C19 = Cytochrome P450 2C19 (Homo sapiens, UniProt P33261); experiment: Cytochrome panel assay with activity outcomes. Panel member name: p450-cyp2c19 Compounds with AC50 equal or less than 10 uM are considered active; assay type: functional
[1] = NIH3T3 cell viability loss – ATP luminescence, mouse fibroblasts, counter-screen, dose response (AID 2010); assay type: functional, cell-based;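 further: cells exposed to compound for about 90 hours before reading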
[2] = Trypanosoma cruzi growth suppression in host cells – NIH3T3 host cells, beta-gal luminescence, confirmation (AID 2044); assay type: functional, cell-based;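 further: intracellular parasites grown in NIH/3T3 mouse fibroblasts as host cells; luminescent beta-galactosidase reporter signal from transgenic T. cruzi replicating inside host cells; inhibitors lower the luminescence signal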
Cytochrome P450 2D6 = Cytochrome P450 2D6 (Homo sapiens, UniProt P10635);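 further: CYP2D6 member of a cytochrome P450 panel assay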
Chain of Cytochrome P450 2D6 (P10635 whole entry): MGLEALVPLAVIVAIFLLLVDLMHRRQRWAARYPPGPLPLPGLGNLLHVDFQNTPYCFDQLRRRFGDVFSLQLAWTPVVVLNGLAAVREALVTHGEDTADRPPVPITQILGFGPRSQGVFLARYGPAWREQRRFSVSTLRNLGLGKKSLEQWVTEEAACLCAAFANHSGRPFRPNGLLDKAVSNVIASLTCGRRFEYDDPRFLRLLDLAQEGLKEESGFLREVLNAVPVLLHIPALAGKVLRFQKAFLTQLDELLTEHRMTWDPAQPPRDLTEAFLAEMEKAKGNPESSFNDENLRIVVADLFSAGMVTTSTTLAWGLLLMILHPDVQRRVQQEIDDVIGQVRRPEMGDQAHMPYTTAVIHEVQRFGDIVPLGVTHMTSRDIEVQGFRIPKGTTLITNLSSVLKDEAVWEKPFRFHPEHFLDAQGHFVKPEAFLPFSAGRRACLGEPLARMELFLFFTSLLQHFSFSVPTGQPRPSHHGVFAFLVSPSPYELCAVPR

Chain of Cytochrome P450 2C19 (P33261 whole entry): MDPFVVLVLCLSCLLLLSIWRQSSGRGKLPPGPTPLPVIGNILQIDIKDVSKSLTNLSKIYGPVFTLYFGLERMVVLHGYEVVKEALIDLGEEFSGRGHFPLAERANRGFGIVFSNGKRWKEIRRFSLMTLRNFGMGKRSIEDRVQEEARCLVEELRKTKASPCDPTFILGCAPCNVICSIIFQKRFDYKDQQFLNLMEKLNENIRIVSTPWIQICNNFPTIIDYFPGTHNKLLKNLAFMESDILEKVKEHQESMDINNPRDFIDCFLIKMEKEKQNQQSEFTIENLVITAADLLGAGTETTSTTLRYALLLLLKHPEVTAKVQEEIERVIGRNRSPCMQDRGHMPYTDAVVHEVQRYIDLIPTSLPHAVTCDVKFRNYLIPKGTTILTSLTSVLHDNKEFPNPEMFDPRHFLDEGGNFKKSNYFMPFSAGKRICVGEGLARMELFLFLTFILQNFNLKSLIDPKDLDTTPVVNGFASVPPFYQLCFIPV

Row | Structure (SMILES) | EC50 [1] | EC50 [2] | also measured
1 | Cn1c(=O)c2nc(CSCc3ccccc3)[nH]c2n(C)c1=O | – | – | AC50 (Cytochrome P450 2C19): inconclusive
2 | CO[C@@H]1COC(=O)[C@H]2CCCN2C(=O)[C@@H](C)COC(=O)CCC[C@H]1C | – | – | AC50 (Cytochrome P450 2C19): inconclusive
3 | CCN1CCN(c2nc(-c3ccncc3)nc3ccccc23)CC1 | > 60 µM (not active) | 1.23 µM (active) | –
4 | OCC1(CCCc2ccccc2)CCN(Cc2cnc(N3CCOCC3)s2)CC1 | > 60 µM (not active) | 1.2 µM (active) | –
5 | Cc1nc(SCC(=O)Nc2c(C)nn(C)c2C)c2cnn(-c3ccccc3)c2n1 | – | – | AC50 (Cytochrome P450 2C19; read-out: AC50): 28.2 µM (inconclusive)
6 | COc1cccc(Cn2c(=O)c(C)nc3cnc(OCc4ccccc4)nc32)c1 | – | – | AC50 (Cytochrome P450 2D6): 20 µM (inconclusive)
7 | COc1ccc(NC(=O)CC2C(=O)N(CCc3ccccc3)C(=S)N2Cc2cccnc2)cc1 (stereo not drawn) | > 60 µM (inconclusive) | 2.03 µM (active) | –
8 | Oc1c[n+](CCCC[n+]2cc(O)on2)no1 | – | – | AC50 (Cytochrome P450 2C19): inconclusive
9 | O=C(NC(Cc1c[nH]c2ccccc12)c1nnc2n1CCCCC2)c1ccccc1 (stereo not drawn) | – | – | AC50 (Cytochrome P450 2C19; read-out: AC50): 17.8 µM (inconclusive)
10 | O=C(Nc1nc2c(F)cc(F)cc2s1)C1CC1 | > 60 µM (not active) | 0.305 µM (active) | –
11 | O=C(c1c[nH]c(C(=O)N2CCN(c3ccccc3F)CC2)c1)c1cccc(Cl)c1Cl | 2.1 µM (active) | 2.69 µM (active) | –
12 | CCOc1ccccc1NC(=O)c1cc(-c2ccncc2)nc2c(Cl)cccc12 | 21.2 µM (active) | 1.97 µM (active) | –
13 | C[C@H](N)c1cccc(Cl)c1Cl | – | – | AC50 (Cytochrome P450 2D6): 31.6 µM (inconclusive)
14 | COc1ccc(CC(=O)NCCN2CCCC2)cc1 | – | – | AC50 (Cytochrome P450 2D6): 28.2 µM (inconclusive)
15 | Cc1cc(C)c(S(=O)(=O)c2ccccc2C)c(Cl)n1 | > 60 µM (not active) | 2.05 µM (active) | –
16 | Cc1ccc(-n2ncc3c2ncn2nc(-c4ccco4)nc32)c(C)c1 | – | – | AC50 (Cytochrome P450 2C19; read-out: AC50): 17.8 µM (inconclusive)
17 | Cc1sc2ncn(CC(=O)NCCCC(=O)N3CCN(c4ncccn4)CC3)c(=O)c2c1C | – | – | AC50 (Cytochrome P450 2C19; read-out: AC50): 25.1 µM (inconclusive)

Row | Structure (SMILES) | EC50 [1] | EC50 [2] | also measured
18 | N=c1c2c(-c3ccccc3)c(-c3ccccc3)n(Cc3ccco3)c2ncn1CCCO | 11.3 µM (active) | 1.33 µM (active) | –
19 | CCC(=O)Nc1nc2ccc([N+](=O)[O-])cc2s1 | > 60 µM (not active) | 0.241 µM (active) | –
20 | O=C(N/N=C/c1cc2c(cc1Br)OCO2)c1c[nH]c2ccccc12 | > 60 µM (inconclusive) | 2.52 µM (active) | –
21 | COc1ccccc1C(=O)C1CCCN(Cc2ccc(Oc3ncccn3)cc2)C1 (stereo not drawn) | > 60 µM (not active) | 0.178 µM (active) | –
22 | CN(C)c1ccc(-c2ccc3ncnc(N(C)Cc4ccco4)c3c2)cc1 | – | – | AC50 (Cytochrome P450 2D6): 25.1 µM (inconclusive)
23 | Cc1oc(-c2ccccc2F)nc1CS(=O)(=O)CC(=O)NCCCN(C)C1CCCCC1 | – | – | AC50 (Cytochrome P450 2D6): 15.8 µM (inconclusive)
24 | Cc1ccccc1Cn1cnc2c(cnn2C(C)(C)C)c1=O | – | – | AC50 (Cytochrome P450 2D6): 35.5 µM (inconclusive)
25 | CSc1cccc(NC(=S)N(Cc2ccc(C)cc2)Cc2ccccn2)c1 | > 60 µM (not active) | 0.483 µM (active) | –
26 | CC(C)c1cc(CN(C)C)c(O)c(C(C)(C)C)c1 | – | – | AC50 (Cytochrome P450 2D6): 6.31 µM (inconclusive)
27 | CN(Cc1ccco1)c1ccnc(-c2ccccc2C(F)(F)F)n1 | – | – | AC50 (Cytochrome P450 2D6): 25.1 µM (inconclusive)
28 | N#CC(C#N)=CNCCN1CCN(C=C(C#N)C#N)CC1 | – | – | AC50 (Cytochrome P450 2C19): inconclusive
29 | O=C(CN1C2=NCCCN2c2ccccc21)c1ccc([N+](=O)[O-])cc1 | > 60 µM (not active) | 0.436 µM (active) | –
30 | COc1ccc(CNc2ncnc3ccc(-c4cccnc4)cc23)c(OC)c1 | – | – | AC50 (Cytochrome P450 2C19; read-out: AC50): 31.6 µM (inconclusive)
31 | CCOC(=O)c1c(NC(=O)CN2CCCCC2)sc(CN(C)C)c1-c1ccccc1 | > 30 µM (not active) | 1.11 µM (active) | –
32 | CCc1nnc(NC(=O)CCC(=O)NCc2ccccc2OC)s1 | – | – | AC50 (Cytochrome P450 2D6): 17.8 µM (inconclusive)
33 | O=C(CSc1ncnc2c1nnn2Cc1ccc(F)cc1)NC1CCCCC1 | > 60 µM (not active) | 4.08 µM (active) | –
